Laboratory results taken from US20230265151A1, “GIP/GLP1 CO-AGONIST COMPOUNDS” (priority 2020, published 2023).
Read-outs that look alike come from different tables or passages of the source. *1 amine or outer side, *2 acyl side, *3 side chain or, on linkers, in order; H or OH if unused. Where a SMILES comes first, the peptide text is derived from it. Side-chain parts run from the residue outwards. [ ]: non-standard residue; d: D form. The star is where a group is joined. Decanoyl(10-(4-HOOC-PhO)) = O=C(O)c1ccc(OCCCCCCCCCC(=O)*)cc1; αMePhe(2-F) = C[C@](N)(Cc1ccccc1F)C(=O)O; γGlu = O=C(O)[C@H](CCC(=O)[*:2])N[*:1]; αMeY = C[C@](N)(Cc1ccc(O)cc1)C(=O)O; αMeL = CC(C)C[C@](C)(N)C(=O)O; Orn = NCCC[C@H](N)C(=O)O; AEEA = NCCOCCOCC(=O)O; Aib = CC(C)(N)C(=O)O

Key:
Assay type in all cases: cell-based
hGIPR = target: T1, hGIPR (Homo sapiens, UniProt P48546); assay: Functional cAMP formation (HTRF) in HEK-293 clonal cells expressing hGIPR, 0.1% bovine casein, without or with 1.0% human serum albumin; details: for Emax: percent of maximal response to GIP(1-42)NH2; for EC50: hGIPR EC50, nM (SEM, n), cAMP, 37° C.
T1 construct: expressed in transfected cells
T1 sequence (P48546 22-466): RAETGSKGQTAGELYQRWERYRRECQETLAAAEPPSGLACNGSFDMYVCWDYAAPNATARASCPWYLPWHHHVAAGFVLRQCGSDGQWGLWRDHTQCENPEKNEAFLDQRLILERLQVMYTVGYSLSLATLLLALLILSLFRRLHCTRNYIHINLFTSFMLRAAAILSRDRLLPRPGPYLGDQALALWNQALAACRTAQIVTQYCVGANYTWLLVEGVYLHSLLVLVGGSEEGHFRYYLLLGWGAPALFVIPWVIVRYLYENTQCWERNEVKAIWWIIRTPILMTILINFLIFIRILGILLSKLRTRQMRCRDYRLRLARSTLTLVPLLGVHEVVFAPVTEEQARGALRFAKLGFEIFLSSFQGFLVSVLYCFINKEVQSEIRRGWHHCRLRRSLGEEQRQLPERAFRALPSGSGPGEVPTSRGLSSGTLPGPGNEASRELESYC
Procedure, shortened: (§1)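 Cells were stimulated with peptide for 30 min at 37° C, then lysed in buffer carrying cAMP-d2 and anti-cAMP Eu3+-cryptate for a competitive HTRF read after at least 60 min at room temperature. The 665/620 nm ratio was converted to nM cAMP against a standard curve.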

hGCGR = target: T2, hGCGR (Homo sapiens, UniProt P47871); assay: Functional cAMP formation (HTRF) in HEK-293 clonal cells expressing hGCGR, 0.1% bovine casein, without or with 1.0% human serum albumin; details: hGCGR EC50, nM (SEM, n), cAMP, 37° C.
T2 construct: expressed in transfected cells
Procedure, shortened: as §1

hGLP-1R = hGLP-1R (Homo sapiens, UniProt P43220); assay: Functional cAMP formation (HTRF) in HEK-293 clonal cells expressing hGLP-1R, 0.1% bovine casein, without or with 1.0% human serum albumin; parameters: expressed in transfected cells; details: for Emax: percent of maximal response to GLP-1(7-36)NH2; for EC50: hGLP-1R EC50, nM (SEM, n), cAMP, 37° C.
Procedure, shortened: as §1

[1] = HEK293, read-out: hGIPR Emax, % ± SEM, cAMP, 37° C., 0.1% bovine casein and 1.0% human serum albumin
[2] = HEK293, read-out: hGIPR Emax, % ± SEM, cAMP, 37° C., 0.1% bovine casein, arithmetic mean
[3] = 0.1% bovine casein (no human serum albumin), geometric mean
[4] = 0.1% bovine casein and 1.0% human serum albumin, geometric mean (SEM, n)
[5] = HEK293, read-out: hGLP-1R Emax, % ± SEM, cAMP, 37° C., 0.1% bovine casein and 1.0% human serum albumin
[6] = HEK293, read-out: hGLP-1R Emax, % ± SEM, cAMP, 37° C., 0.1% bovine casein, arithmetic mean

T2 sequence (P47871 26-477): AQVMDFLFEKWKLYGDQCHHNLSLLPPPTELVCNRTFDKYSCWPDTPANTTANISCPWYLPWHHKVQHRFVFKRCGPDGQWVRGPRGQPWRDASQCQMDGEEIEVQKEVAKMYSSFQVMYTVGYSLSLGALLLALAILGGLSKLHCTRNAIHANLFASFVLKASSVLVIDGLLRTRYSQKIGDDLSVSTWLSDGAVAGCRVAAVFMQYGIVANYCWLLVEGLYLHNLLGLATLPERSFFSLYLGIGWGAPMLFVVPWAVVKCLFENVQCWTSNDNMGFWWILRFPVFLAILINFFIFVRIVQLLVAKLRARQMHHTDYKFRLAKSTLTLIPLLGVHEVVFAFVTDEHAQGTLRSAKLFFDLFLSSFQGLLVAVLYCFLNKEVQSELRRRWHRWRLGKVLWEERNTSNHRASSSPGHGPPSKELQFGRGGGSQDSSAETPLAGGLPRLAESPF
hGLP-1R, sequence (P43220 24-463): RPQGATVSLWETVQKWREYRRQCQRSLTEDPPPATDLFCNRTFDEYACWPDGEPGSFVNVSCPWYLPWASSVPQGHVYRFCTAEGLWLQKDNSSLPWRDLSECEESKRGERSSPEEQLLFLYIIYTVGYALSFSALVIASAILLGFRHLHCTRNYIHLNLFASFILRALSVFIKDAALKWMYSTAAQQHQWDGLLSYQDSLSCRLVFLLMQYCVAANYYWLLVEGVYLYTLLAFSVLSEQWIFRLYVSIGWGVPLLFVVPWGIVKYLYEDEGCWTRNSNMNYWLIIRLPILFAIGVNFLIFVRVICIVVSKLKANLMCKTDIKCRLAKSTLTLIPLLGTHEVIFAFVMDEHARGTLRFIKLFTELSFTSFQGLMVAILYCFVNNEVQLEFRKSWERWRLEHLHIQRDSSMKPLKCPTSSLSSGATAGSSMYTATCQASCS

| SMILES | Emax (hGIPR; [1]) [%] | Emax (hGIPR; [2]) [%] | EC50 (hGIPR; [3]) [nM] | EC50 (hGCGR; [3]) [nM] | EC50 (hGCGR; [4]) [nM] | Emax (hGLP-1R; [5]) [%] | Emax (hGLP-1R; [6]) [%] | EC50 (hGLP-1R; [3]) [nM] | EC50 (hGIPR; [4]) [nM] | EC50 (hGLP-1R; [4]) [nM] |
| --- | --- | --- | --- | --- | --- | --- | --- | --- | --- | --- |
| CC[C@H](C)[C@H](NC(=O)[C@H](CCCN)NC(=O)[C@H](CC(=O)O)NC(=O)[C@H](CC(C)C)NC(=O)[C@](C)(CC(C)C)NC(=O)[C@@H](NC(=O)C(C)(C)NC(=O)[C@H](Cc1ccc(O)cc1)NC(=O)[C@H](CC(=O)O)NC(=O)[C@H](CO)NC(=O)[C@@H](NC(=O)[C@](C)(Cc1ccccc1F)NC(=O)[C@@H](NC(=O)CNC(=O)[C@H](CCC(=O)O)NC(=O)C(C)(C)NC(=O)[C@@H](N)Cc1ccc(O)cc1)[C@@H](C)O)[C@@H](C)O)[C@@H](C)CC)C(=O)N[C@@H](C)C(=O)N[C@@H](CCC(N)=O)C(=O)NC(C)(C)C(=O)N[C@@H](CCCCNC(=O)COCCOCCNC(=O)CC[C@H](NC(=O)CCCCCCCCCOc1ccc(C(=O)O)cc1)C(=O)O)C(=O)N[C@@H](Cc1ccccc1)C(=O)N[C@H](C(=O)N[C@H](CCC(=O)O)C(=O)N[C@@](C)(Cc1ccc(O)cc1)C(=O)N[C@@H](CC(C)C)C(=O)N[C@H](C(=O)N[C@@H](CCC(=O)O)C(=O)NCC(=O)NCC(=O)N1CCC[C@H]1C(=O)N[C@@H](CO)C(=O)N[C@@H](CO)C(=O)NCC(=O)N[C@@H](C)C(=O)N1CCC[C@H]1C(=O)N1CCC[C@H]1C(=O)N1CCC[C@H]1C(=O)N[C@@H](CO)C(=O)N[C@@H](CCCCNC(=O)COCCOCCNC(=O)CC[C@H](NC(=O)CCCCCCCCCOc1ccc(C(=O)O)cc1)C(=O)O)C(N)=O)[C@@H](C)CC)[C@@H](C)CC [Example 377] (H-Y[Aib]EGT[αMePhe(2-F)]TSDY[Aib]I[αMeL]LD[Orn]IAQ[Aib]K([AEEA-γGlu-Decanoyl(10-(4-HOOC-PhO))])FI[dE][αMeY]LIEGGPSSGAPPPSK([AEEA-γGlu-Decanoyl(10-(4-HOOC-PhO))])-NH2) | 79.4 | 92.8 | 0.0205 | > 9950 | > 9950 | 110 | 100 | 0.356 | – | – |
| CC[C@H](C)[C@H](NC(=O)[C@H](CC(C)C)NC(=O)[C@](C)(Cc1ccc(O)cc1)NC(=O)[C@@H](CCC(=O)O)NC(=O)[C@@H](NC(=O)[C@H](Cc1ccccc1)NC(=O)[C@H](CCCCNC(=O)COCCOCCNC(=O)CC[C@H](NC(=O)CCCCCCCCCOc1ccc(C(=O)O)cc1)C(=O)O)NC(=O)C(C)(C)NC(=O)[C@H](CCC(N)=O)NC(=O)[C@H](C)NC(=O)[C@H](CCCCNC(=O)COCCOCCNC(=O)CC[C@H](NC(=O)CCCCCCCCCOc1ccc(C(=O)O)cc1)C(=O)O)NC(=O)[C@H](CCCN)NC(=O)[C@H](CC(=O)O)NC(=O)[C@H](CC(C)C)NC(=O)[C@](C)(CC(C)C)NC(=O)[C@@H](NC(=O)C(C)(C)NC(=O)[C@@H](NC(=O)[C@H](CC(=O)O)NC(=O)[C@H](CO)NC(=O)[C@@H](NC(=O)[C@](C)(Cc1ccccc1F)NC(=O)[C@@H](NC(=O)CNC(=O)[C@H](CCC(=O)O)NC(=O)C(C)(C)NC(=O)[C@@H](N)Cc1ccc(O)cc1)[C@@H](C)O)[C@@H](C)O)C(C)C)[C@@H](C)CC)[C@@H](C)CC)C(=O)N[C@@H](CCC(=O)O)C(=O)NCC(=O)NCC(=O)N1CCC[C@H]1C(=O)N[C@@H](CO)C(=O)N[C@@H](CO)C(=O)NCC(=O)N[C@@H](C)C(=O)N1CCC[C@H]1C(=O)N1CCC[C@H]1C(=O)N1CCC[C@H]1C(=O)N[C@@H](CO)C(N)=O [Example 378] | 81.2 | 93.5 | 0.0132 | > 9950 | > 9950 | – | 98.9 | 0.166 | – | – |
| CC[C@H](C)[C@H](NC(=O)[C@H](CC(C)C)NC(=O)[C@](C)(Cc1ccc(O)cc1)NC(=O)[C@@H](CCC(=O)O)NC(=O)[C@@H](NC(=O)[C@H](Cc1ccccc1)NC(=O)[C@H](CCC(=O)O)NC(=O)C(C)(C)NC(=O)[C@H](CCC(N)=O)NC(=O)[C@H](C)NC(=O)[C@H](CCCCNC(=O)COCCOCCNC(=O)CC[C@H](NC(=O)CCCCCCCCCOc1ccc(C(=O)O)cc1)C(=O)O)NC(=O)[C@H](CCCN)NC(=O)[C@H](CC(=O)O)NC(=O)[C@H](CC(C)C)NC(=O)[C@](C)(CC(C)C)NC(=O)[C@@H](NC(=O)C(C)(C)NC(=O)[C@@H](NC(=O)[C@H](CC(=O)O)NC(=O)[C@H](CO)NC(=O)[C@@H](NC(=O)[C@](C)(Cc1ccccc1F)NC(=O)[C@@H](NC(=O)CNC(=O)[C@H](CCC(=O)O)NC(=O)C(C)(C)NC(=O)[C@@H](N)Cc1ccc(O)cc1)[C@@H](C)O)[C@@H](C)O)C(C)C)[C@@H](C)CC)[C@@H](C)CC)C(=O)N[C@@H](CCCCNC(=O)COCCOCCNC(=O)CC[C@H](NC(=O)CCCCCCCCCOc1ccc(C(=O)O)cc1)C(=O)O)C(=O)NCC(=O)NCC(=O)N1CCC[C@H]1C(=O)N[C@@H](CO)C(=O)N[C@@H](CO)C(=O)NCC(=O)N[C@@H](C)C(=O)N1CCC[C@H]1C(=O)N1CCC[C@H]1C(=O)N1CCC[C@H]1C(=O)N[C@@H](CO)C(N)=O [Example 379] | 90 | 97.5 | 0.0167 | > 9950 | > 9950 | – | – | 0.171 | 11.6 | – |
| CC[C@H](C)[C@H](NC(=O)[C@H](CC(C)C)NC(=O)[C@](C)(Cc1ccc(O)cc1)NC(=O)[C@@H](CCC(=O)O)NC(=O)[C@@H](NC(=O)[C@H](Cc1ccccc1)NC(=O)[C@H](CCC(=O)O)NC(=O)C(C)(C)NC(=O)[C@H](CCC(N)=O)NC(=O)[C@H](C)NC(=O)[C@H](CCCCNC(=O)COCCOCCNC(=O)COCCOCCNC(=O)CC[C@H](NC(=O)CCCCCCCCCOc1ccc(C(=O)O)cc1)C(=O)O)NC(=O)[C@H](CCCN)NC(=O)[C@H](CC(=O)O)NC(=O)[C@H](CC(C)C)NC(=O)[C@](C)(CC(C)C)NC(=O)[C@@H](NC(=O)C(C)(C)NC(=O)[C@@H](NC(=O)[C@H](CC(=O)O)NC(=O)[C@H](CO)NC(=O)[C@@H](NC(=O)[C@](C)(Cc1ccccc1F)NC(=O)[C@@H](NC(=O)CNC(=O)[C@H](CCC(=O)O)NC(=O)C(C)(C)NC(=O)[C@@H](N)Cc1ccc(O)cc1)[C@@H](C)O)[C@@H](C)O)C(C)C)[C@@H](C)CC)[C@@H](C)CC)C(=O)N[C@@H](CCC(=O)O)C(=O)NCC(=O)NCC(=O)N1CCC[C@H]1C(=O)N[C@@H](CO)C(=O)N[C@@H](CO)C(=O)NCC(=O)N[C@@H](C)C(=O)N1CCC[C@H]1C(=O)N1CCC[C@H]1C(=O)N1CCC[C@H]1C(=O)N[C@@H](CO)C(=O)N[C@@H](CCCCNC(=O)COCCOCCNC(=O)COCCOCCNC(=O)CC[C@H](NC(=O)CCCCCCCCCOc1ccc(C(=O)O)cc1)C(=O)O)C(N)=O [Example 380] (H-Y[Aib]EGT[αMePhe(2-F)]TSDV[Aib]I[αMeL]LD[Orn]K([AEEA-AEEA-γGlu-Decanoyl(10-(4-HOOC-PhO))])AQ[Aib]EFI[dE][αMeY]LIEGGPSSGAPPPSK([AEEA-AEEA-γGlu-Decanoyl(10-(4-HOOC-PhO))])-NH2) | 93.5 | 100 | 0.0209 | > 9950 | > 9950 | 94.5 | 96.2 | 0.176 | – | 28 |
